Results reported in patent publication US8178506B2, “Oligomeric compounds and compositions for use in modulation of small non-coding RNAs” (Regulus Therapeutics Inc., priority 2003, dated 2012).
In the oligonucleotide strings, read from the 5' end, every base follows the letter of its sugar. An asterisk marks phosphorothioate; unmarked linkages are phosphodiester. Other units and linkages are bracketed, terminal groups are in braces. A string of capitals states the bases alone. e = 2'-O-(2-methoxyethyl) (MOE); [5mC] = 5-methylcytosine

Legend:
adipocytes = experiment: Triglyceride accumulation assay in adipocytes; assay type: cell-based, human; settings: differentiating adipocytes transfected with oligomeric compound
aP2 = aP2 mRNA expression in adipocytes (real-time PCR); assay type: cell-based, human; settings: differentiating adipocytes transfected with oligomeric compound; for aP2 mRNA: Table 75
HSL = HSL mRNA expression in adipocytes (real-time PCR); assay type: cell-based, human; settings: differentiating adipocytes transfected with oligomeric compound
Glut4 = Glut4 mRNA expression in adipocytes (real-time PCR); assay type: cell-based, human; settings: differentiating adipocytes transfected with oligomeric compound
PPARγ = PPARγ mRNA expression in adipocytes (real-time PCR); assay type: cell-based, human; settings: differentiating adipocytes transfected with oligomeric compound
HuVECs = experiment: Endothelial tube formation assay in HuVECs; settings: for % Activity Relative to UTC (tube formation): 75 nM oligomeric compound; for tube formation: 75 nM

## 327879 (antisense eA*eA*e[5mC]*eA*eA*eA*eA*eT*e[5mC]*eA*e[5mC]*eT*eA*eG*eT*e[5mC]*eT*eT*e[5mC]*e[5mC]*eA) [compound 327879]
adipocytes; Table 75
  TG (triglyceride accumulation): 59 percentage of untreated control (UTC)
aP2
  aP2 mRNA: 103 percentage of untreated control (UTC)
HSL; Table 75
  HSL mRNA: 103 percentage of untreated control (UTC)
Glut4; Table 75
  GLUT4 mRNA: 99 percentage of untreated control (UTC)
PPARγ; Table 75
  PPAR gamma mRNA: 81 percentage of untreated control (UTC)
HuVECs; Table 56
  % Activity Relative to UTC (tube formation): 71.4%

## 327881 (antisense eA*eA*eA*eA*eG*eA*eG*eA*e[5mC]*e[5mC]*eG*eG*eT*eT*e[5mC]*eA*e[5mC]*eT*eG*eT*eG*eA) [compound 327881]
adipocytes; Table 75
  TG (triglyceride accumulation): 91 percentage of untreated control (UTC)
aP2
  aP2 mRNA: 95 percentage of untreated control (UTC)
HSL; Table 75
  HSL mRNA: 93 percentage of untreated control (UTC)
Glut4; Table 75
  GLUT4 mRNA: 97 percentage of untreated control (UTC)
PPARγ; Table 75
  PPAR gamma mRNA: 98 percentage of untreated control (UTC)
HuVECs; Table 56
  % Activity Relative to UTC (tube formation): 50.0%

## 327891 (antisense eG*eG*e[5mC]*e[5mC]*eG*eT*eG*eA*e[5mC]*eT*eG*eG*eA*eG*eA*e[5mC]*eT*eG*eT*eT*eA) [compound 327891]
adipocytes; Table 75
  TG (triglyceride accumulation): 22 percentage of untreated control (UTC)
aP2
  aP2 mRNA: 56 percentage of untreated control (UTC)
HSL; Table 75
  HSL mRNA: 52 percentage of untreated control (UTC)
Glut4; Table 75
  GLUT4 mRNA: 47 percentage of untreated control (UTC)
PPARγ; Table 75
  PPAR gamma mRNA: 50 percentage of untreated control (UTC)
HuVECs; Table 56
  % Activity Relative to UTC (tube formation): 50.0%

## 327898 (antisense eG*eT*eA*eG*eT*eG*e[5mC]*eT*eT*eT*e[5mC]*eT*eA*e[5mC]*eT*eT*eT*eA*eT*eG) [compound 327898]
adipocytes; Table 75
  TG (triglyceride accumulation): 102 percentage of untreated control (UTC)
aP2
  aP2 mRNA: 96 percentage of untreated control (UTC)
HSL; Table 75
  HSL mRNA: 92 percentage of untreated control (UTC)
Glut4; Table 75
  GLUT4 mRNA: 82 percentage of untreated control (UTC)
PPARγ; Table 75
  PPAR gamma mRNA: 101 percentage of untreated control (UTC)
HuVECs; Table 56
  % Activity Relative to UTC (tube formation): 100.0%

## 327915 (antisense eA*e[5mC]*eA*eT*eG*eG*eT*eT*eA*eG*eA*eT*e[5mC]*eA*eA*eG*e[5mC]*eA*e[5mC]*eA*eA) [compound 327915]
HuVECs; Table 57
  % Activity Relative to UTC (tube formation): 69.0%

## 327929 (antisense eG*eA*eA*e[5mC]*eA*eG*eA*eT*eA*eG*eT*e[5mC]*eT*eA*eA*eA*e[5mC]*eA*e[5mC]*eT*eG*eG*eG) [compound 327929]
adipocytes; Table 75
  TG (triglyceride accumulation): 65 percentage of untreated control (UTC)
aP2
  aP2 mRNA: 62 percentage of untreated control (UTC)
HSL; Table 75
  HSL mRNA: 68 percentage of untreated control (UTC)
Glut4; Table 75
  GLUT4 mRNA: 49 percentage of untreated control (UTC)
PPARγ; Table 75
  PPAR gamma mRNA: 71 percentage of untreated control (UTC)
HuVECs; Table 58
  % Activity Relative to UTC (tube formation): 51.9%

## 327932 (antisense eA*eG*eG*e[5mC]*eA*eT*eA*eG*eG*eA*eT*eG*eA*e[5mC]*eA*eA*eA*eG*eG*eG*eA*eA) [compound 327932]
HuVECs; Table 58
  % Activity Relative to UTC (tube formation): 51.9%

## 327937 (antisense eG*eA*eT*eT*e[5mC]*eA*e[5mC]*eA*eA*e[5mC]*eA*e[5mC]*e[5mC]*eA*eG*e[5mC]*eT) [compound 327937]
adipocytes
  TG (triglyceride accumulation): 81 percentage of untreated control (UTC)
aP2
  AP2 mRNA: 76 percentage of untreated control (UTC)
HSL
  HSL mRNA: 77 percentage of untreated control (UTC)
Glut4
  GLUT4 mRNA: 63 percentage of untreated control (UTC)
PPARγ
  PPAR gamma mRNA: 92 percentage of untreated control (UTC)
HuVECs; Table 58
  % Activity Relative to UTC (tube formation): 88.9%

## 327943 (antisense eT*eA*eT*e[5mC]*eT*eG*e[5mC]*eA*e[5mC]*eT*eA*eG*eA*eT*eG*e[5mC]*eA*e[5mC]*e[5mC]*eT*eT*eA) [compound 327943]
adipocytes; Table 75
  TG (triglyceride accumulation): 112 percentage of untreated control (UTC)
aP2
  aP2 mRNA: 106 percentage of untreated control (UTC)
HSL; Table 75
  HSL mRNA: 109 percentage of untreated control (UTC)
Glut4; Table 75
  GLUT4 mRNA: 87 percentage of untreated control (UTC)
PPARγ; Table 75
  PPAR gamma mRNA: 98 percentage of untreated control (UTC)
HuVECs; Table 58
  % Activity Relative to UTC (tube formation): 81.5%

## 327947 (antisense eT*e[5mC]*eA*eG*eT*eT*eA*eT*e[5mC]*eA*e[5mC]*eA*eG*eT*eA*e[5mC]*eT*eG*eT*eA) [compound 327947]
HuVECs; Table 58
  % Activity Relative to UTC (tube formation): 81.5%

## 327948 (antisense eG*e[5mC]*eT*eG*eA*eG*eT*eG*eT*eA*eG*eG*eA*eT*eG*eT*eT*eT*eA*e[5mC]*eA) [compound 327948]
HuVECs; Table 59
  % Activity Relative to UTC (tube formation): 33.3%

## 327953 (antisense eA*eG*eA*eA*eT*eT*eG*e[5mC]*eG*eT*eT*eT*eG*eG*eA*e[5mC]*eA*eA*eT*e[5mC]*eA) [compound 327953]
adipocytes
  TG (triglyceride accumulation): 94 percentage of untreated control (UTC)
aP2
  AP2 mRNA: 92 percentage of untreated control (UTC)
HSL
  HSL mRNA: 94 percentage of untreated control (UTC)
Glut4
  GLUT4 mRNA: 112 percentage of untreated control (UTC)
PPARγ
  PPAR gamma mRNA: 90 percentage of untreated control (UTC)
HuVECs; Table 59
  % Activity Relative to UTC (tube formation): 53.3%

## 327960 (antisense eG*eT*e[5mC]*eT*eG*eT*e[5mC]*eA*eA*eT*eT*e[5mC]*eA*eT*eA*eG*eG*eT*e[5mC]*eA*eT) [compound 327960]
adipocytes
  TG (triglyceride accumulation): 47 percentage of untreated control (UTC)
aP2
  AP2 mRNA: 52 percentage of untreated control (UTC)
HSL
  HSL mRNA: 52 percentage of untreated control (UTC)
Glut4
  GLUT4 mRNA: 34 percentage of untreated control (UTC)
PPARγ
  PPAR gamma mRNA: 76 percentage of untreated control (UTC)
HuVECs; Table 59
  % Activity Relative to UTC (tube formation): 53.3%

## 327962 (antisense eG*e[5mC]*eT*eG*eA*eG*eA*eG*eT*eG*eT*eA*eG*eG*eA*eT*eG*eT*eT*eT*eA*e[5mC]*eA) [compound 327962]
adipocytes; Table 75
  TG (triglyceride accumulation): 64 percentage of untreated control (UTC)
aP2
  aP2 mRNA: 75 percentage of untreated control (UTC)
HSL; Table 75
  HSL mRNA: 77 percentage of untreated control (UTC)
Glut4; Table 75
  GLUT4 mRNA: 58 percentage of untreated control (UTC)
PPARγ; Table 75
  PPAR gamma mRNA: 80 percentage of untreated control (UTC)
HuVECs; Table 59
  % Activity Relative to UTC (tube formation): 53.3%

## 342672 (antisense eA*eT*eA*e[5mC]*e[5mC]*eG*e[5mC]*eG*eA*eT*e[5mC]*eA*eG*eT*eG*e[5mC]*eA*eT*e[5mC]*eT*eT*eT) [compound 342672]
HuVECs; Table 56
  % Activity Relative to UTC (tube formation): 46.4%
HuVECs; Table 57
  % Activity Relative to UTC (tube formation): 58.6%
HuVECs; Table 58
  % Activity Relative to UTC (tube formation): 55.6%
HuVECs; Table 59
  % Activity Relative to UTC (tube formation): 60.0%

## AAAGTGTCAGATACGGTGTGG (anti-miR; chemistry not fully specified) [ISIS 327944]
HuVECs
  tube formation: suppressed tube formation

## ATCCAATCAGTTCCTGATGCAGTA (chemistry not given here) [ISIS 327966]
HuVECs
  tube formation: suppressed tube formation

## CCGGCTGCAACACAAGACACGA (anti-miR; chemistry not fully specified) [ISIS 327958]
HuVECs
  tube formation: suppressed tube formation

## GCTGAGTGTAGGATGTTTACA (anti-miR; chemistry not fully specified) [ISIS 327948]
HuVECs
  tube formation: suppressed tube formation
